# According to patent US20150133527A1, “REGULATION OF CARDIAC SODIUM CHANNELS BY SIRT1 AND SIRT1 ACTIVATORS” (University of Pittsburgh - Of the Commonwealth System of …, priority 2012, published 2015):
# Columns and labels:
# [1] = system: full-length Nav1.5; assay: Lysine acetylation of full-length Nav1.5 expressed in HEK 293 cells (acetyl-lysine IP / immunoblot); format: cell-based; settings: HEK 293 cells expressing the full-length channel
# Source text: FIGS. 8A and 8B show a series of Western blot images illustrating that wild-type SIRT1 deacetylates full-length Nav1.5. (8A) GFP-tagged full-length Nav1.5 was expressed in HEK 293 cells, with and without myc-tagged wild-type SIRT1, and immunoprecipitated (IP). IPs were immunoblotted (IB) with GFP and myc. (8B) Nav1.5 was expressed in HEK 293 cells. Cells were co-transfected with SIRT or treated with resveratrol or NAM. Acetyl-lysine IPs were immunoblotted for Nav1.5
# (§1) How SIRT1 acts to increase Nav1.5 membrane localization and INa was addressed. Because SIRT1 is a lysine deacetylase, it was hypothesized that it changes the acetylation status of lysine residues in Nav1.5. To test this hypothesis, whether the two proteins bind to each other was tested. […] In addition, endogenous SIRT1 co-precipitated with endogenous Nav1.5 in NRCMs and in mouse hearts (FIG. 7B). Next, if Nav1.5 is acetylated on lysine residues was determined. In HEK 293 cells expressing the full-length channel, Nav1.5 was robustly acetylated on lysine residues, and overexpression or stimulation (with resveratrol) of SIRT1 decreased, while inhibition of SIRT1 with NAM increased, this acetylation (FIG. 8).
# [2] = system: GST-Nav1.5 (III-IV); assay: Ubiquitination of GST-Nav1.5 (III-IV) in HEK 293 cells; format: cell-based
# [3] = system: Nav1.5 (III-IV); assay: Lysine acetylation of GST-tagged Nav1.5 (III-IV) expressed in HEK 293 cells; format: cell-based; settings: GST-tagged loop III-IV construct in HEK 293 cells
# Source text: GST-tagged Nav1.5 (III-IV) was expressed in HEK 293 cells. Cells were co-transfected with wild-type SIRT1 or treated with NAM or resveratrol. Nav1.5 (III-IV) was pulled down with GST-agarose, and immunoblotted (IB) with GST and acety-lysine antibodies.
# Because Nav1.5 has 84 lysine residues, the number of putative lysine targets of SIRT1 was narrowed down by excluding the extra-cellular and membrane-spanning domains. Attention was initially focused on one intracellular region (termed loop III-IV) which is rich in lysine residues (12 lysines), based on by prior reports showing that lysines in this region are important for channel function (Grant et al., J. Clinic. Invest. 110, 1201-1209, 2002). Using a GST-tagged construct encoding the 61 amino acids in loop III-IV expressed in HEK 293 cells, if lysine acetylation of this region of Nav1.5 is regulated by SIRT1 was examined.
# [4] = system: native Nav1.5; assay: Lysine acetylation of native Nav1.5 in rat neonatal cardiomyocytes (Western blot); format: cell-based
# Method: FIGS. 9A-9C are a graph and a set of Western blots showing that inhibition of endogenous SIRT1 increases lysine acetylation of native Nav1.5 in rat neonatal cardiomyocytes.
# as §1
# [5] = system: native Nav1.5 (INa); assay: Whole cell patch clamp of INa in rat neonatal cardiac myocytes; format: cell-based; settings: 5 μM
# [6] = QRS amplitude on ECGs; format: in vivo; settings: suggestive of increased sodium currents
# Source text: It is disclosed herein that SIRT1 can deacetylate Nav1.5, that Nav1.5 and SIRT1 co-immunoprecipitate, that over-expression of SIRT1 increases INa currents and that dominant negative suppression of SIRT1 or use of SIRT1 inhibitors decreases INa currents, that SIRT1 increases membrane expression of Nav1.5 and dominant negative SIRT1 decreases membrane expression of Nav1.5, that SIRT1 targets lysine 1479 in Nav1.5, that SIRT1 increases INa and dominant negative SIRT1 decreases INa by targeting lysine 1479 in Nav1.5, and that SIRT1 increases membrane expression of Nav1.5 by targeting lysine 1479 in Nav1.5. In addition there is prolongation of the PR interval, intermittent high-grade atrioventricular block on ECGs and telemetry of cardiomyocyte-specific SIRT1 knockout mice compared to wild type control mice, and decreased conduction velocity of the electrical impulse in hearts of cardiomyocyte-specific SIRT1 knockout mice compared to wild type control mice.
# [7] = system: GFP-tagged full-length Nav1.5; assay: Ubiquitination of GFP-tagged full-length Nav1.5 in HEK 293 cells; format: cell-based; settings: resveratrol 100 μM, 4 hrs
# Method: FIGS. 13A and 13B are a set of Western blots showing that SIRT1 de-ubiquitinates Nav1.5. (A) HEK 293 cells were transfected with full-length GFP-tagged Nav1.5 and HA-ubiquitin. Cells were treated with resveratrol (100 μM, 4 hrs). Nav1.5 was immunoprecipitated (IP) with GFP and immunoblotted with GFP and HA. (B) HEK 293 cells were transfected with GST-tagged Nav1.5 (III-IV) and HA-ubiquitin. Cells were treated with NAM or co-transfected with SIRT1. Nav1.5 (III-IV) was pulled down with GST-agarose and immunoblotted (IB) with HA.
# Poly-ubiquitination of Nav1.5 inhibits its membrane localization (Van Bemmelen et al., Circ. Res. 95, 284-291, 2004). SIRT1 regulates ubiquitination of some of its targets, in some cases decreasing ubiquitination (Van Bemmelen et al., Circ. Res. 95, 284-291, 2004). Because SIRT1 increases membrane expression of Nav1.5, whether SIRT1 decreases ubiquitination of the channel was tested. First, the effect of the SIRT1 activator resveratrol on ubiquitination of Nav1.5 was determined. In HEK 293 cells GFP-tagged full-length Nav1.5 was robustly poly-ubiquitinated (FIG. 13A). […] Using GST-Nav1.5 (III-IV) the effect of SIRT1 on ubiquitination of this intracellular region of Nav1.5 was also examined. Similar to full-length Nav1.5, GST-Nav1.5 (III-IV) was also poly-ubiquitinated (FIG. 13B). […]
SMILES,lysine acetylation of full-length Nav1.5 [1],poly-ubiquitination of GST-Nav1.5 (III-IV) [2],acetylation of Nav1.5 (III-IV) [3],lysine acetylation of native Nav1.5 [4],effect on INa ([5]; compared to inactive isomer Ex-242),"effect on INa ([5]; compared to inactive isomer Ex-242, listed as ex-243)",QRS amplitude on ECGs [6],poly-ubiquitination of full-length Nav1.5 [7]
"NC(=O)c1cccnc1 [NAM, nicotinamide]",increased,increased,increased,–,–,–,–,–
NC(=O)[C@H]1CCCc2c1[nH]c1ccc(Cl)cc21 [Ex-243],–,–,–,increases,significantly decreased,decreases,–,–
Oc1ccc(C=Cc2cc(O)cc(O)c2)cc1 [resveratrol],decreased,–,decreased,–,–,–,increased,significantly decreased
